Assay results taken from patent US6921766B1, “Blood vessel lipid deposition-preventive agent comprising chymase-inhibitor” (Daiichi Suntory Pharma Co., Ltd., priority 1999, dated 2005).
Entries after “also recorded” stand apart in the source; their conditions may differ.

Experiments:
Human heart chymase = molecular target: T1, Human heart chymase (Homo sapiens, UniProt P23946); test: Inhibitory activity of test compounds to human chymase (Suc-Ala-Ala-Pro-Phe-MCA substrate); format: biochemical; settings: purified human heart chymase, preincubated 10 min at 30° C., pH 7.5
T1 construct: Human heart chymase was purified according to the method of Urata et al; from tissue; host or cells: human heart
T1 sequence (P23946 22-247): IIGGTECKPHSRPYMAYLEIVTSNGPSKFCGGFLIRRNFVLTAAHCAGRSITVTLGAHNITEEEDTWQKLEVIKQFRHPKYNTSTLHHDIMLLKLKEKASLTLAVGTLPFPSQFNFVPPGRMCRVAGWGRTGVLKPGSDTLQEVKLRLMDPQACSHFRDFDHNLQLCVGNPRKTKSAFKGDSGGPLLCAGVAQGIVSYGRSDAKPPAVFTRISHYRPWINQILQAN
Experimental: Human heart chymase was purified according to the method of Urata et al. (J. Biol. Chem. 265: 22348, 1990). The inhibitory activity of the compound of the present invention was determined as follows. Purified enzyme was diluted with 0.1 M Tris-HCl buffer (pH 7.5) containing 1 M sodium chloride and 0.01% Triton X-100 to appropriate concentrations. Suc-Ala-Ala-Pro-Phe-MCA (Peptide Institute Inc.) was dissolved in 10 mM dimethyl sulfoxide (hereinafter referred to as DMSO) and diluted 20-fold with 0.1 M Tris-HCl buffer (pH 7.5) containing 1 M sodium chloride and 0.01% Triton X-100 to an appropriate concentration to prepare substrate solution.
5 μl of the test sample in DMSO was added to 75 μl of the enzyme solution and preincubated at 30° C. for 10 minutes. Then, 20 μl of the substrate solution was added to the test sample-enzyme mixture, and incubated at 30° C. Ten minutes later, 50 μl of 30% acetic acid was added to stop the enzymatic reaction, and the amount of AMC formed was determined using a fluorophotometer. At the same time, 5 μl of DMSO in stead of the test sample was added and reacted simultaneously as a control. The inhibitory activity to human chymase was calculated based on the value of the control, and then the inhibition percentage and the 50% inhibition concentration (IC50) were determined.

[1] = human, pH 7.2
Experimental: 2 μl of 1 mM test sample in DMSO was added to 198 μl of 50% of human plasma solution in a 50 mM sodium phosphate buffer (pH 7.2) and incubated at 30° C. At 0, 5, and 15 minutes, 800 μl of acetonitrile was added to the test sample-plasma mixture, which was mixed and deproteinized. The supernatant obtained by centrifugation (12,000 rpm, one minute) was diluted with the same volume of distilled water, and the intact compound in the solution was determined by HPLC analysis.
The half life (t1/2) of the test sample in the plasma solution was calculated from the recovery at each time point using an exponential regression analysis.

[2] = system: lipid deposition in the aorta; test: Aortic lipid deposition model in hamster induced by high-cholesterol diet; format: in vivo, Golden Syrian hamsters; settings: 100 mg/kg/day orally for 12 weeks
Experimental: An aorta lipid deposition model was induced by a high-cholesterol diet. A high-cholesterol diet was prepared by adding 0.5% cholesterol and 10% coconut oil (KBT Oriental Co.) to a standard rodent feed containing 5.1% fat and 0.07% cholesterol (KBT oriental Co.). 8-week-old male Golden Syrian hamsters (KBT Oriental Co.) (100-130 g) were given the high-cholesterol diet for 12 weeks to induce lipid deposition in the aorta. A group to which a standard rodent feed was given for 12 weeks was used as the control.
An aortic lipid deposition model was generated as described in Example 3 and used as the high-cholesterol diet group (n=6). A group that received the standard rodent diet for 12 weeks was used as the control group (n=6). […]
The effect on lipid deposition by the chymase no inhibitor was evaluated by harvesting the aorta on week 12 after the start of the high-cholesterol diet and performing a histopathological analysis. […]
Then, the sections were washed with 60% isopropanol and distilled water, and counterstained with hematoxylin for 2 minutes. After washing with 1/4 saturated LiCO3, lipid deposition was evaluated by microscopic observation. Also, the area of the lipid deposition region (the region stained to an orange color with Oil red O) was quantitated on the histological pictures by NIH Image software ver. […]

SMILES | IC50 (Human heart chymase) [nM] | t1/2 (plasma half life) [1] [h] | lipid deposition area in the aortic cusp region ([2]; FIG. 1, monosodium salt, 100 mg/kg/day) | lipid deposition in the aorta (microscopic examination of the aortic cusp) ([2]; Oil red O staining)
O=C(O)C1Oc2ccc(S(=O)(=O)n3c(=O)[nH]c4cc(Cl)ccc4c3=O)cc2NC1=O (racemic) [Compound 29, (±)-6-[(7-chloro-2,4(1H,3H)-quinazolinedione-3-yl)sulfonyl]-3-oxo-1,4-benzoxadine-2-carboxylic acid] | 1700 |  |  | 
CC(C(=O)O)C(=O)Nc1cccc(S(=O)(=O)n2c(=O)[nH]c3cc(Cl)ccc3c2=O)c1 (centres unmarked) [Compound 13, 2-{3-[(7-chloro-2,4(1H,3H)-quinazolinedione-3-yl)sulfonyl]phenylaminocarbonyl}propionic acid] | 300 | 1.62 |  | 
Nc1cc(S(=O)(=O)n2c(=O)[nH]c3cc(Cl)ccc3c2=O)ccc1C(=O)[O-].[Na+] [Compound 18, 4-[(7-chloro-2,4(1H,3H)-quinazolinedione-3-yl)sulfonyl]anthranilic acid monosodium salt] |  |  | decreased; also recorded: significantly suppressed | completely disappeared
